Assay results reported in ChEMBL document CHEMBL1201862, “PubChem BioAssay data set” (2004).
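Five compound concentrations were applied to cells in 96-well plates for 48 hours; endpoints were derived by simple linear interpolation of the resulting dose-response curve. At the GI50, growth is halved.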 Calls of active or inactive are those of the source. Rule as the data show it: active = GI50 up to about 1.1 µM and inactive = higher.

Legend:
Experiment in all cases: NCI tumour cell line growth inhibition, 48 h
SK-MEL-5 = tested on: SK-MEL-5
A549 = tested on: A549
786-0 = tested on: 786-0
MOLT-4 = tested on: MOLT-4
SNB-19 = tested on: SNB-19
SW-620 = tested on: SW-620
HOP-62 = tested on: HOP-62
OVCAR-8 = tested on: OVCAR-8
UACC-257 = tested on: UACC-257
ACHN = tested on: ACHN
A498 = tested on: A498
T47D = tested on: T47D
PC-3 = tested on: PC-3
UACC-62 = tested on: UACC-62
NCI-H23 = tested on: NCI-H23
SK-OV-3 = tested on: SK-OV-3
NCI/ADR-RES = tested on: NCI/ADR-RES
CCRF-CEM = tested on: CCRF-CEM
NCI-H226 = tested on: NCI-H226
LOX IMVI = tested on: LOX IMVI

Measured: GI50

C/C=C\C(CC(=O)NCCC1CN(S(=O)(=O)c2ccc(C)cc2)c2ccccc21)CC(=O)OC (centres undefined)
inactive: SK-MEL-5 > 100 µM | A549 > 100 µM | 786-0 > 100 µM | MOLT-4 > 100 µM | SNB-19 > 100 µM | SW-620 > 100 µM | HOP-62 > 100 µM | OVCAR-8 > 100 µM | UACC-257 > 100 µM | ACHN > 100 µM | A498 > 100 µM | T47D > 100 µM | PC-3 > 100 µM | UACC-62 > 100 µM | NCI-H23 > 100 µM | SK-OV-3 > 100 µM | NCI/ADR-RES > 100 µM

CCn1ncc2c(=O)n3ncn(-c4ccc(Br)cc4)c3nc21
inactive: SK-MEL-5 > 100 µM | A549 > 100 µM | 786-0 > 100 µM | MOLT-4 > 100 µM | SNB-19 > 100 µM | SW-620 > 100 µM | HOP-62 > 100 µM | CCRF-CEM > 100 µM | OVCAR-8 > 100 µM | UACC-257 > 100 µM | ACHN > 100 µM | A498 > 100 µM | T47D > 100 µM | PC-3 > 100 µM | UACC-62 > 100 µM | NCI-H23 > 100 µM | SK-OV-3 > 100 µM | NCI-H226 > 100 µM | NCI/ADR-RES > 100 µM

C=C(C)[C@@H]1CC[C@]2(C)CC[C@]3(C)[C@H](CC[C@@H]4[C@@]5(C)CC[C@H](O)C(C)(C)[C@@H]5CC[C@]43C)[C@@H]12 [LUPEOL]
inactive: SK-MEL-5 > 74 µM | A549 > 62.7 µM | 786-0 37.2 µM | MOLT-4 27.5 µM | SNB-19 > 47.3 µM | SW-620 > 48.2 µM | HOP-62 > 58.3 µM | CCRF-CEM 22.1 µM | OVCAR-8 33.3 µM | UACC-257 > 42.7 µM | ACHN > 55.1 µM | A498 13.4 µM | LOX IMVI 19.5 µM | T47D > 100 µM | PC-3 32.3 µM | UACC-62 > 100 µM | NCI-H23 61.5 µM | NCI-H226 > 50.4 µM | NCI/ADR-RES 26.7 µM

Cc1ccc(C2(c3ccc(C)c(O)c3C)CCN(C)CC2)c(C)c1O
inactive: SK-MEL-5 > 100 µM | A549 > 100 µM | 786-0 51.2 µM | MOLT-4 > 100 µM | SNB-19 62.4 µM | SW-620 88.1 µM | HOP-62 51.2 µM | CCRF-CEM 60.1 µM | OVCAR-8 > 100 µM | UACC-257 15.8 µM | ACHN > 100 µM | A498 41.7 µM | LOX IMVI 34.8 µM | T47D 64.6 µM | PC-3 35 µM | UACC-62 > 100 µM | NCI-H23 > 100 µM | NCI-H226 > 100 µM | NCI/ADR-RES > 100 µM
